{
  "source": "patent EP3184516A1",
  "about": "“CRYSTALLINE INCLUSION COMPLEXES OF MIRABEGRON WITH BETA-CYCLODEXTRIN” (Enantia, S.L., priority 2015, dated 2017)",
  "key": {"[1]": {"conditions": "cited from earlier work"}, "[2]": {"test": "Water solubility study at room temperature by HPLC analysis of saturated water solutions", "assay_type": "physicochemical", "method": "A water solubility study at room temperature was performed comparing Mirabegron Form α and crystalline inclusion complexes of Mirabegron with β-cyclodextrin Forms I and II by HPLC analysis of saturated water solutions.\nA slurring of Mirabegron Form α was performed under the same conditions.\nA slurring of Mirabegron Form α (20 mg) was performed in the same conditions."}, "[3]": {"conditions": "according to EP1440969A1, cited from earlier work"}, "[4]": {"test": "Solubility tests performed by the present inventors", "assay_type": "physicochemical", "from_the_text": "Two different crystal forms of Mirabegron free base, named as α-form and β-form, were also disclosed in EP1440969A1."}, "[5]": {"conditions": "Kalariya et al., RSC Adv. 2015; cited from earlier work"}},
  "note": "Where a name gives a salt, the structure may show the parent alone. Read-outs that look alike come from different tables or passages of the source.",
  "data": [
    {"smiles": "Nc1nc(CC(=O)Nc2ccc(CCNC[C@H](O)c3ccccc3)cc2)cs1", "note": "[Mirabegron Form α, 2-(2-amino-1,3-thiazol-4-yl)-N-[4-(2-{[(2R)-2-hydroxy-2-phenylethyl]amino}ethyl)phenyl]acetamide]", "values": [
      {"measurement": "solubility in water (in words)", "setting": "[1]; according to EP1440969A1", "result": "practically insoluble"},
      {"measurement": "HPLC peak area corresponding to Mirabegron", "setting": "[2]; 20 mg stirred in 0.8 ml of water for 19h, mother liquor (Form I experiment)", "result": 1728, "unit": "counts"},
      {"measurement": "HPLC peak area corresponding to Mirabegron", "setting": "[2]; 24 mg (Form α 20 mg) stirred in 1 ml of water for 19h, mother liquor (Form II experiment)", "result": 1570, "unit": "counts"},
      {"measurement": "hygroscopicity", "setting": "[3]; listed as α-form", "result": "non-hygroscopic"},
      {"measurement": "stability of crystal form", "setting": "[3]; listed as α-form", "result": "stable"}
    ]},
    {"smiles": "Nc1nc(CC(=O)Nc2ccc(CCNC[C@H](O)c3ccccc3)cc2)cs1", "note": "[Mirabegron, 2-(2-amino-1,3-thiazol-4-yl)-N-[4-(2-{[(2R)-2-hydroxy-2-phenylethyl]amino}ethyl)phenyl]acetamide]", "values": [
      {"measurement": "solubility in water", "setting": "[1]; free base, AusPar / FDA prescribing information", "result": 82, "unit": "µg/mL"},
      {"measurement": "solubility in water at room temperature", "setting": "[4]", "result": "less than 50 volumes"},
      {"measurement": "degradation under hydrolytic and oxidative stress conditions", "setting": "[5]", "result": "degrades"},
      {"measurement": "stability under thermal and photolytic conditions", "setting": "[5]", "result": "stable"}
    ]},
    {"smiles": "Nc1nc(CC(=O)Nc2ccc(CCNC[C@H](O)c3ccccc3)cc2)cs1", "note": "[dihydrochloride salt]", "values": [
      {"measurement": "hygroscopicity", "setting": "[3]", "result": "strongly hygroscopic"},
      {"measurement": "stability of crystal form", "setting": "[3]", "result": "unstable"}
    ]},
    {"smiles": "Nc1nc(CC(=O)Nc2ccc(CCNC[C@H](O)c3ccccc3)cc2)cs1", "note": "[β-form, 2-(2-amino-1,3-thiazol-4-yl)-N-[4-(2-{[(2R)-2-hydroxy-2-phenylethyl]amino}ethyl)phenyl]acetamide]", "values": [
      {"measurement": "hygroscopicity", "setting": "[3]", "result": "low hygroscopicity"},
      {"measurement": "stability of crystal form", "setting": "[3]", "result": "metastable"}
    ]}
  ]
}
